{
  "source": "patent US11246910B2",
  "about": "“Methods of treating immunological disorders using immunosuppressive compositions” (Singapore Health Services Pte Ltd, priority 2016, dated 2022)",
  "key": {"[1]": {"system": "male ICR mice", "assay": "Side effect on neutrophil and red blood cell count", "format": "in vivo, mouse", "settings": "day 1, 3, 7, 14 post-treatment (FIGS. 5B, 5C)", "protocol": "(A) Body weight changes. NSG mice were treated with CXCL5 and anti-CCL24 antibody twice weekly with gradually increasing dose (3 mice were used in each group). (B & C) Side effect on neutrophil and red blood cell count. ICR mice treated with dPBS, CXCL5 and anti-CCL24 antibody were bled and a blood count was performed on day 1, day 3, day 7 and day 14 post-treatment (4 male mice were used for each group). (D & E & F) Liver and kidney toxicity. ICR mice were treated with dPBS, CXCL5 and anti-CCL24 antibody on day 0, day 4 and day 7. Mice peripheral blood by cheek bleeding and urine were harvested on day 1, day 5 and day 8. Alanine transaminase (ALT) and aspartate transaminase (AST or SGOT) concentration in plasma were determined by ALT and AST activity assay kit. Both alanine transaminase and aspartate transaminase are enzyme associated with the liver and are therefore used as clinical marker for liver health. Albumin creatinine ratio (ACR) in urine was determined by Mouse Albumin ELISA kit and Jaffe's reaction using Creatinine Colorimetric Assay kit (3 female ICR mice were used for each group)."}, "[2]": {"system": "NSG mice with GVHD", "assay": "Xenogeneic GVHD mouse model (human PBMCs into irradiated NSG mice)", "experimental": "Moderate and severe xenogeneic GVHD mouse model was induced by injecting 200×10^6 cells/kg and 400×10^6 cells/kg of human cryopreserved PBMCs to NSG mice respectively by IV injection via tail vein. 240 cGy of irradiation was given to the mice 3-4 hours before the transplantation. […] NSG mice injected with dPBS were used as negative control. […] Injection volume was normalized to the body weight of the mice. Mouse survival was monitored daily, while clinical scoring was done every three days. 30-40 ul of mouse peripheral blood (PB) was collected from tail vein every 3 days, from day 18 onwards until day 36 post-treatment. Mouse plasma and isolated cells from PB, marrow and spleen were used for luminex assay (Bio-rad) and flow cytometry analysis (CyAN, Beckman coulter). […] At day 0, human PBMCs were transplanted into NSG mice to create the referenced GVHD model. The onset of GVHD is took place around day 10 to day 12 PT. Treatment of the sick mice commenced on day 10, day 14, day 17 and day 21 PT, and samples were taken from the mice on day 18, 21, 24, 27, 30, 33 and 36 PT.\nMouse survival was monitored daily and clinical score (for GVHD) was monitored every three days. The assessment of clinical GVHD index was based on five parameters: weight loss, posture, activity, fur texture and skin integrity, giving a maximum index of 10. At experimental end-point on day 30 post-treatment, histological evaluation was performed on representative mice on the following tissues: skin, small intestine and kidney with Haematoxylin and Eosin (H&E) stain. Key histological parameters assessed were different for each tissue type according to accepted published criteria for acute GVHD in the different organ systems. Basal vacuolar change, spongiosis and lymphocytic satelittosis were graded for skin; crypt apoptosis, lymphocytic inflammation and intraepithelial lymphocytosis was graded for small intestine; and interstitial inflammation, tubulitis and arterial changes were graded for kidney. All parameters were graded with 4 tiers (none, mild, moderate and severe) and given a score of 0-3, giving a maximum index of 27 (Table 7). The slides were scored in blinded fashion by a single observer.\nCirculating human source cytokines/chemokines were measured using a Bio-plex Pro Human Cytokine 17-plex kit (Bio-rad). It included analytes of G-CSF, GM-CSF, IFN-γ, IL-1β, IL-2, IL-4, IL-5, IL-6, IL-7, IL-8, IL-10, IL-12, IL-13, IL-17A, MCP-1, MIP-1β and TNF-α in the analysis. Following the standard protocol, 16 times diluted plasma samples were incubated with magnetic beads for 2 hours, the with detection antibodies for 1 hour and finally with streptavidin-PE for 10 minutes at room temperature. Three complete wash steps were required between each incubation step. The plate was read on Milliplex Analyzer (Millipore) with Luminex xPONENT software.\nCells isolated from NSG mouse peripheral blood (PB) harvested from tail vein, BM and spleen were subjected to flow cytometric analysis using CyAN (Beckman coulter) with Summit software."}, "[3]": {"system": "two HLA-mismatched UCB-MNCs", "assay": "Mixed lymphocyte reaction (MLR), cell-mediated cytotoxicity by LDH detection (in vitro GVHD model)", "format": "cell-based, human", "settings": "lowest concentration giving maximum repression of cytotoxicity in MLR (FIG. 3)", "protocol": "MLR served as an in vitro GVHD model and was initiated by co-culturing two HLA-mismatched UCB-MNCs at 15:1 effector/target (E/T) ratios in […] medium (Stem Cell Technologies) for 20 hours in 37° C., 5% CO2 incubator. The mixed lymphocytes (ML) were treated with BM-MSCs by co-culture without transwell inserts (i.e. physical direct contact) or with transwell inserts (i.e. indirect bidirectional regulation via the two secretomes) or with BM-MSC-conditional medium. Transwell inserts were placed at 0.5 mm and 0.9 mm above the well bottom, and the 1-day old BM-MSC culture medium was used as conditional medium (1d-CM). Untreated MLR was used as a negative control to set the cell-mediated cytotoxicity baseline of the MLR. The cell-mediated cytotoxicity was measured by lactate dehydrogenase (LDH) cytotoxicity detection kit (Roche). Following the kit instruction, the detection plate was incubated in the dark for 20 minutes at room temperature, and absorbance was measured at 490 nm with 650 nm as reference wavelength using Benchmark Plus microplate spectrophotometer (Bio-Rad).\nAll the proteins and antibodies were purchased from Peprotech. For each molecule, the lowest working concentration that caused the maximum repression of cytotoxicity by MLR was used for further analysis. In order to determine the optimal combination of interested cytokines, the twelve molecules were arranged in a 2^12 fractional FD table (Table 3). There were twelve factors with two levels. Level-1 meant without addition of this interested molecule, level-2 meant addition of this interested molecule with optimal working concentration. Condition-1 without addition of any interested molecules served as negative control; Condition-16 with addition of full panel of interested molecules and MLR laid on MSCs served as positive control respectively.\nBased on the maximal extend attenuating cell-mediated cytotoxicity, another 2^7 factorial FD (Table 4) was derived from Condition-6 in 2^12 fractional FD, which involved IL-10, OPG, CXCL5, CXCL6, CCL20 anti-CCL1 and anti-CCL24.\nSimilarly, a 2^4 full FD (Table 5) was further derived from Condition-6 in 2^7 fractional FD, which involved OPG, CXCL5, anti-CCL1 and anti-CCL24."}, "[4]": {"system": "healthy NSG mice", "assay": "Maximum tolerance dose (MTD) study", "format": "in vivo", "excerpt": "Two doses of anti-CCL24 antibody and CXCL5 chemokine were administrated to 8-10 week-old healthy NSG mice by intravenous (IV) injection at day-1 and day-3 of every week. […]"}, "[5]": {"system": "DBA/2J mice with bleomycin-induced skin fibrosis", "assay": "Bleomycin-induced scleroderma (systemic sclerosis) mouse model", "format": "in vivo", "protocol": "Skin fibrosis was induced in 6 to 8-week-old DBA/2J mice by subcutaneous injection of bleomycin (0.5 mg/mi) into defined areas of 1 cm^2 on the lower back every other day, for 21 days. After a 3-week bleomycin challenge, another 3-week treatment was followed. 50 ng/ml of CXCL5 was given twice/week for 3 consecutive weeks. Mice treated with dPBS, bone marrow-derived mesenchymal stem cells (BM-MSCs; 5-10×10^6 cells/kg, single injection) and Prednisolone (Pred) (1 mg/kg/day for first 10 days, 0.5 mg/kg/day for the second 10 days) were used as positive and standard controls. Mice were sacrificed on day 21 post-treatment and the injected skin and peripheral blood were processed for further analysis.\nLesioned skin areas were excised, fixed in 10% formalin, and embedded in paraffin. Sections (5 μm thick) were stained with hematoxylin & eosin (H&E). The dermal thickness was analyzed at 100-fold magnification by measuring the distance between the epidermal-dermal junction and the dermal-subcutaneous fat junction at four sites from the lesioned skin of each mouse. Dermal leukocyte infiltration was counted on randomly-taken photos with High Power Field (HPF) (400×). Five photos were taken for each mouse. The average cell number of these five photos was used for counting the leukocyte infiltration. Two independent examiners performed the evaluation."}, "[6]": {"settings": "histological score in NSG mice, H&E, Table 7"}},
  "data": [
    {"substance": "CXCL5: epithelial-derived neutrophil-activating protein 78, a CXC chemokine; human source", "values": [
      {"measurement": "neutrophil and RBC count", "setting": "[1]", "result": "did not alter neutrophil and RBC count"},
      {"measurement": "Kidney: Arterial changes", "setting": "[2]; [6]", "result": "none (graded with 4 tiers (none, mild, moderate and severe) and given a score of 0-3)"},
      {"measurement": "Kidney: Interstitial inflammation", "setting": "[2]; [6]", "result": "mild (graded with 4 tiers (none, mild, moderate and severe) and given a score of 0-3)"},
      {"measurement": "Kidney: Tubulitis", "setting": "[2]; [6]", "result": "mild (graded with 4 tiers (none, mild, moderate and severe) and given a score of 0-3)"},
      {"measurement": "Skin: Lymphocytic satelitosis number of cells", "setting": "[2]; [6]", "result": "< 5"},
      {"measurement": "Skin: Lymphocytic satelitosis, grade", "setting": "[2]; [6]", "result": "mild (graded with 4 tiers (none, mild, moderate and severe) and given a score of 0-3)"},
      {"measurement": "Skin: Vacuolar change", "setting": "[2]; [6]", "result": "none (graded with 4 tiers (none, mild, moderate and severe) and given a score of 0-3)"},
      {"measurement": "Skin: spongiosis", "setting": "[2]; [6]", "result": "none (graded with 4 tiers (none, mild, moderate and severe) and given a score of 0-3)"},
      {"measurement": "Small intestine: Apoptosis", "setting": "[2]; [6]", "result": "1 /hpf"},
      {"measurement": "Small intestine: Apoptosis, grade", "setting": "[2]; [6]", "result": "mild (graded with 4 tiers (none, mild, moderate and severe) and given a score of 0-3)"},
      {"measurement": "Small intestine: Intraepithelial lymphocytosis", "setting": "[2]; [6]", "result": "2/50 epithelial /50 epithelial cells"},
      {"measurement": "Small intestine: Intraepithelial lymphocytosis, grade", "setting": "[2]; [6]", "result": "cells(mild) (graded with 4 tiers (none, mild, moderate and severe) and given a score of 0-3)"},
      {"measurement": "Small intestine: Lymphocytic inflammation", "setting": "[2]; [6]", "result": "mild (graded with 4 tiers (none, mild, moderate and severe) and given a score of 0-3)"},
      {"measurement": "Σscore (overall histological score)", "setting": "[2]; maximum index 27, Mild, 0-9, moderate, 10-18, Severe, 19-27", "result": 6},
      {"measurement": "36-day survival", "setting": "[2]; moderate GVHD", "result": 78.3, "unit": "%"},
      {"measurement": "symptoms", "setting": "[2]; moderate GVHD", "result": "mild"},
      {"measurement": "human pro-inflammatory cytokine secretion in the circulation", "setting": "[2]; plasma, Luminex 17-plex (FIGS. 8, 11)", "result": "comparable to the 2F cocktail in the suppression of pro-inflammatory cytokines IFN-γ, IL-6, IL-8, and MIP-1β"},
      {"measurement": "36-day survival", "setting": "[2]; severe GVHD", "result": 26.1, "unit": "%"},
      {"measurement": "symptoms", "setting": "[2]; severe GVHD", "result": "moderate"},
      {"measurement": "immunosuppression effect on circulating CTLs, Th1 cells, splenic macrophages and NK cells", "setting": "[2]; single factor alone, cell population assay (FIG. 10)", "result": "suboptimal immunosuppression effect"},
      {"measurement": "optimal in vitro working concentration", "setting": "[3]", "result": 50, "unit": "ng/mL"},
      {"measurement": "well-tolerated dose, deemed safe", "setting": "[4]; IV twice per week, NSG mice", "result": 200, "unit": "ng/mL"},
      {"measurement": "body weight", "setting": "[4]; gradually increasing dose, 18 days (FIG. 5A)", "result": "stably maintained"},
      {"measurement": "leukocyte infiltration in the skin", "setting": "[5]; FIG. 22B", "result": "2.3±2.0", "unit": "cells/HPF"},
      {"measurement": "hematopoiesis in bone marrow", "setting": "[5]; FIG. 23A", "result": "maintain the normal hematopoiesis in bone marrow"},
      {"measurement": "effector cells in peripheral blood", "setting": "[5]; FIG. 23B", "result": "suppressing the proliferation of monocytes and TH1 cells in peripheral blood"},
      {"measurement": "skin thickness", "setting": "[5]; after 3-week treatment (FIG. 22A)", "result": "277.2±47.6", "unit": "μm"}
    ]}
  ]
}
